Reference: publication PMC11974249 (Drug metabolism and pharmacokinetics, 2024)

Experiments:
[1] = system: arecoline hydrolase activity in HLC; assay: Reaction phenotyping with esterase inhibitors in HLC; type: biochemical, human; conditions: HLC 0.2 mg/ml, arecoline 25 μM, 15 min; inhibitor concentrations as in HLM
[2] = system: arecoline hydrolase activity in HLM; assay: Reaction phenotyping with esterase inhibitors in HLM; type: biochemical, human; conditions: HLM 0.2 mg/ml, arecoline 25 μM, 15 min; loperamide 1 μM, digitonin 20 μM, ethanol 41 mM, BNPP 10 μM, BW284c51 25 μM, ethopropazine 1 μM, vinblastine 10 μM
[3] = Enzyme kinetics of hydrolysis; type: in vitro ADME, human; conditions: for Vmax: HLC 0.2 mg/ml, 15 min, 37 °C, rate of carboxylate metabolite formation; for Km at 15 min / CLint scaled / microsomal CLint: both, human, pH 7.4; for Km at 15 min: human liver cytosol (pooled); for CLint scaled / microsomal CLint: human liver cytosol
[4] = Depletion of parent compound over 90 min in fresh or thermally-inactivated HLC; type: in vitro ADME, human
[5] = Depletion of parent compound over 90 min in fresh or thermally-inactivated HLM; type: in vitro ADME, human; conditions: for parent level remaining: at 90 min
[6] = subjects with Alzheimer's disease treated with arecoline; cited from earlier work
[7] = Arecoline hydrolysis in human intestinal microsomes and cytosol; type: in vitro ADME
[8] = mouse liver homogenate, cited from earlier work
human recombinant CES2 = biological target: T1, human recombinant CES2 (Homo sapiens, UniProt O00748); assay: Arecoline hydrolysis by human recombinant CES2; type: in vitro ADME; conditions: 5–40 min, CES protein 0.1–0.4 mg/ml
T1 sequence (O00748 27-559): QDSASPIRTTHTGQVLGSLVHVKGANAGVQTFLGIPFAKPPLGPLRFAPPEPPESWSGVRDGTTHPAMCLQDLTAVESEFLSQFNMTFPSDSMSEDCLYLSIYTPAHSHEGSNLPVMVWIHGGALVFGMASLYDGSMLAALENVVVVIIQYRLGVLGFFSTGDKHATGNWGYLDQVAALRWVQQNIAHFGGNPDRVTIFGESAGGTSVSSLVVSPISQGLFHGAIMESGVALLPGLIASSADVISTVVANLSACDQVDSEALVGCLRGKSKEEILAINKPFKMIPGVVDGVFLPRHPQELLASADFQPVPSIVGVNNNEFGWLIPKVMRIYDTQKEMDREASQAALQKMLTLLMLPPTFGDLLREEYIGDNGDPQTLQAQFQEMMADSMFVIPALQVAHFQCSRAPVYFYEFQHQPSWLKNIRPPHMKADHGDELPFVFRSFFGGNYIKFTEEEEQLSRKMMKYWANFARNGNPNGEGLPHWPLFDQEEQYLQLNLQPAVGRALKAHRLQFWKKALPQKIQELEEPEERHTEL

[9] = Fraction unbound to plasma proteins by ultrafiltration; type: in vitro ADME; conditions: plasma protein in sodium phosphate buffer, pH 7.4
plasma proteins = assay: as above; type: in vitro ADME; conditions: from fu.p
human recombinant CES1 = biological target: T2, human recombinant CES1 (Homo sapiens, UniProt P23141); assay: Arecoline hydrolysis by human recombinant CES1; type: in vitro ADME; conditions: 5–40 min, CES protein 0.1–0.4 mg/ml
T2 sequence (P23141 18-567): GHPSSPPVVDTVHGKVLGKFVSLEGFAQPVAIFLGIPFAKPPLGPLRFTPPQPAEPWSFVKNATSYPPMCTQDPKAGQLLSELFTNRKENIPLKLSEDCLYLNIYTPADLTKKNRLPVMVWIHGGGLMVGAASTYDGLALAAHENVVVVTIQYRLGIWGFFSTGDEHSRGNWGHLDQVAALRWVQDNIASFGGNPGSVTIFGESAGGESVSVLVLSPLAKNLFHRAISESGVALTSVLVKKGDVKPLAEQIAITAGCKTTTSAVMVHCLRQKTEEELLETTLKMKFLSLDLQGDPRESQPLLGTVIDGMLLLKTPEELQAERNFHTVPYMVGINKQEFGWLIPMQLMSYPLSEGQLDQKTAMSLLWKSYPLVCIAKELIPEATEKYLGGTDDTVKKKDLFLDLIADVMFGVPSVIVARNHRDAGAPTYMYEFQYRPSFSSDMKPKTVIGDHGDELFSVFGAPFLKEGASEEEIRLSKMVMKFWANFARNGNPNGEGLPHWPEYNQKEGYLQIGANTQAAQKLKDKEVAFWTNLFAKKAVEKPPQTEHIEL

[10] = Enzyme kinetics of hydrolysis; type: in vitro ADME, human; conditions: for EH: hepatic extraction ratio; for ClH: well-stirred model, Q 21 ml/min/kg; for Km at 15 min / CLint scaled / microsomal CLint: both, human, pH 7.4; for Km at 15 min: human liver microsomes (pooled); for CLint scaled / microsomal CLint: human liver microsomes
[11] = both, human, human liver cytosol, pH 7.4
[12] = both, human, human liver microsomes, pH 7.4

O=[N+]([O-])c1ccc(OP(=O)(O)Oc2ccc([N+](=O)[O-])cc2)cc1 [BNPP, bis(4-nitrophenyl)-phosphate]
change in mean percent activity of arecoline hydrolase compared to control [1]: significant reductions | percent activity of arecaidine formation compared to control [2]: 14.4%

C=CC[N+](C)(C)c1ccc(CCC(=O)CCc2ccc([N+](C)(C)CC=C)cc2)cc1.[Br-].[Br-] [BW284c51, 1,5-Bis(4-allyldimethylammoniumphenyl)pentan-3-one dibromide]
change in mean percent activity of arecoline hydrolase compared to control [1]: no significant change | percent activity of arecaidine formation compared to control [2]: 103%

COC(=O)C1=CCCN(C)C1 [arecoline]
Vmax [3]: 118 nmol/min/mg protein | Km at 15 min [3]: 9.11 mM | CLint scaled [3]: 11.6 mL/min/kg | microsomal CLint [3]: 12.9 µL/min/mg | arecoline concentration remaining in HLC samples compared to HLM samples ([4]; at 90 min, initial arecoline 10 μM): approximately 12.8 fold | half-life at 10 μM [4, 11]: 97 min | half-life at 100 μM [4, 11]: 99.8 min | half-life at 1000 μM [4, 11]: 126 min | parent level remaining ([5]; HLM): 5.6 % control | half-life at 10 μM [5, 12]: 15.7 min | half-life at 100 μM [5, 12]: 16.6 min | half-life at 1000 μM [5, 12]: 17.2 min | average elimination T1/2 in plasma [6]: 10.5 min | arecoline hydrolysis in intestinal sub-cellular fractions [7]: no arecoline hydrolysis | depletion ([8]; 30 min incubation): ~100% | maximum rate of arecoline depletion [8]: 4.7 nmol/min/mg protein | hydrolysis by CES2 (human recombinant CES2): no hydrolysis | fraction unbound at 15 min [9]: 0.978 | amount available for distribution to peripheral tissues (plasma proteins): ~ 98% | amount predicted to bind plasma proteins (plasma proteins): ~ 2% | hydrolysis by CES1 (human recombinant CES1): sub-stantial hydrolysis | EH ([10]; HLM): 0.733 | ClH ([10]; HLM): 15.4 mL/min/kg | Km at 15 min [10]: 8.68 mM | CLint scaled [10]: 57.8 mL/min/kg | microsomal CLint [10]: 90.3 µL/min/mg | extraction ratio class ([10]; from EH in HLM): high (> 0.7)

C[C@@H]1CC[C@@]2(OC1)O[C@H]1[C@@H](O)[C@H]3[C@@H]4CC[C@H]5C[C@@H](O[C@@H]6O[C@H](CO)[C@H](O[C@@H]7O[C@H](CO)[C@@H](O)[C@H](O[C@@H]8OC[C@@H](O)[C@H](O)[C@H]8O)[C@H]7O[C@@H]7O[C@H](CO)[C@H](O)[C@H](O[C@@H]8O[C@H](CO)[C@@H](O)[C@H](O)[C@H]8O)[C@H]7O)[C@H](O)[C@H]6O)[C@H](O)C[C@]5(C)[C@H]4CC[C@]3(C)[C@H]1[C@@H]2C [digitonin]
change in mean percent activity of arecoline hydrolase compared to control [1]: significant reductions | percent activity of arecaidine formation compared to control [2]: 70%

CCO [ethanol]
change in mean percent activity of arecoline hydrolase compared to control [1]: significant reductions | percent activity of arecaidine formation compared to control [2]: 44.6%

CCN(CC)C(C)CN1c2ccccc2Sc2ccccc21 (centres unmarked) [ethopropazine]
change in mean percent activity of arecoline hydrolase compared to control [1]: no significant change | percent activity of arecaidine formation compared to control [2]: 102%

COC(=O)C1=CCCNC1 [guvacoline]
Vmax [3]: 14.4 nmol/min/mg protein | Km at 15 min [3]: 27.8 mM | CLint scaled [3]: 0.466 mL/min/kg | microsomal CLint [3]: 0.518 µL/min/mg | depletion over time ([4]; HLC, all tested concentrations, data not shown): only minimal depletion | depletion over time ([5]; HLM, all concentrations (0.01, 0.1, 1.0 mM), 90 min): only minimal depletion | parent level remaining ([5]; HLM): 98 % control | fraction unbound at 15 min [9]: 0.998 | ClH less compared to arecoline ([10]; HLM): 96% | Clint.invivo less compared to arecoline ([10]; HLM): 99% | EH less compared to arecoline ([10]; HLM): 96% | Vmax less compared to arecoline ([10]; HLM): 96% | Vmax ([10]; HLM 0.2 mg/ml, 15 min, 37 °C, rate of carboxylate metabolite formation): 35 nmol/min/mg protein | EH ([10]; HLM): 0.0306 | ClH ([10]; HLM): 0.643 mL/min/kg | Km at 15 min [10]: 34.3 mM | CLint scaled [10]: 0.654 mL/min/kg | microsomal CLint [10]: 1.02 µL/min/mg

CN(C)C(=O)C(CCN1CCC(O)(c2ccc(Cl)cc2)CC1)(c1ccccc1)c1ccccc1 [loperamide]
change in mean percent activity of arecoline hydrolase compared to control [1]: no significant change | percent activity of arecaidine formation compared to control [2]: 100.2%

CC[C@]1(O)C[C@@H]2CN(CCc3c([nH]c4ccccc34)[C@@](C(=O)OC)(c3cc4c(cc3OC)N(C)[C@H]3[C@@](O)(C(=O)OC)[C@H](OC(C)=O)[C@]5(CC)C=CCN6CC[C@]43[C@@H]65)C2)C1 [vinblastine]
change in mean percent activity of arecoline hydrolase compared to control [1]: no significant change | percent activity of arecaidine formation compared to control [2]: 100%
